Experiments:
Details in all cases: 48 h
NOMO1 [1] = test: AUC of viability dose-response curve (% viability x log10 dose units); higher = less sensitive
Method in brief: (§1)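 Viability of medium-adapted leukemia cells was measured by CellTiter-Glo One luminescence after 48 h at 37°C with library compounds in DMSO. Doses were 11 threefold steps from 47 μM to 0.79 nM, in 1536-well plates at 500 or 1000 cells/well. Signals were normalised per plate to DMSO and cell-free wells and fitted with a four-parameter log-logistic model on log10 dose. Area under the curve was integrated by trapezoidal rule, with curves exceeding full viability scaled and failed quality-control curves removed.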

P12-Ichikawa [2] = test: as above
Method in brief: as §1

SEM cells [3] = test: as above
Method in brief: as §1

SEM cells [4] = test: cell viability relative to DMSO control; higher = less cytotoxic
Method in brief: (§2)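 Three leukemia lines were tested: NOMO1 and SEM at 500 cells/well and P12-Ichikawa at 1000 cells/well. Each was adapted for at least four passages in each medium and seeded in 5 μl in 1536-well plates, and library compounds in DMSO were pin-dosed from 47 μM to 0.79 nM in 11 threefold steps. After 48 h at 37°C, CellTiter-Glo One luminescence was read. Viability is a percentage relative to DMSO wells on each plate, with cell-free wells as background.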

NOMO1 [5] = test: as above
Method in brief: as §2

P12-Ichikawa [6] = test: as above
Method in brief: as §2

C[C@H]1[C@H](OC(=O)CCC(=O)O)O[C@@H]2O[C@@]3(C)CC[C@H]4[C@H](C)CC[C@@H]1[C@@]24OO3
AUC of viability dose-response curve
Details	NOMO1 [1]	P12-Ichikawa [2]	SEM cells [3]
HPLM + 10% dialyzed FBS	350	372	393
RPMI 5 mM glucose + 10% FBS	342	360	371
RPMI 5 mM glucose + 10% dialyzed FBS	335	351	378

O=C1Nc2cc(Br)ccc2/C1=C1/Nc2ccccc2/C1=N\O
cell viability [%], SEM cells [4]
Details	HPLM + 10% dialyzed FBS	RPMI 5 mM glucose + 10% FBS	RPMI 5 mM glucose + 10% dialyzed FBS
0.000781 µM	109	87.2	111
0.00234 µM	102	113	102
0.00702 µM	110	110	89.9
0.0211 µM	100	95.3	99.4
0.0632 µM	108	98.4	90.5
0.19 µM	78.5	98.8	69.9
0.569 µM	66.5	60	64.9
1.71 µM	31.5	21.3	34.8
5.12 µM	4.61	2.47	4.53
15.4 µM	3.01	1.39	2.51
46.1 µM	1.68	0.712	1.3

AUC of viability dose-response curve
Details	NOMO1 [1]	P12-Ichikawa [2]	SEM cells [3]
HPLM + 10% dialyzed FBS	366	365	296
RPMI 5 mM glucose + 10% FBS	391	377	299
RPMI 5 mM glucose + 10% dialyzed FBS	401	382	290

C=C1/C(=C\C=C2/CCC[C@]3(C)[C@@H]([C@H](C)/C=C/[C@H](C)C(C)C)CC[C@@H]23)C[C@@H](O)C[C@@H]1O
AUC of viability dose-response curve
Details	NOMO1 [1]	P12-Ichikawa [2]	SEM cells [3]
HPLM + 10% dialyzed FBS	398	399	446
RPMI 5 mM glucose + 10% FBS	423	404	438
RPMI 5 mM glucose + 10% dialyzed FBS	416	408	450

CC(C)n1nc(-c2ccc3oc(N)nc3c2)c2c(N)ncnc21
cell viability [%]
Details	NOMO1 [5]	P12-Ichikawa [6]	SEM cells [4]
HPLM + 10% dialyzed FBS, 0.000781 µM	96.9	95.5	87.7
HPLM + 10% dialyzed FBS, 0.00234 µM	75.9	91	73.7
HPLM + 10% dialyzed FBS, 0.00702 µM	65.1	86.3	63.3
HPLM + 10% dialyzed FBS, 0.0211 µM	62.6	79.7	56.4
HPLM + 10% dialyzed FBS, 0.0632 µM	55.3	78	44.5
HPLM + 10% dialyzed FBS, 0.19 µM	53.6	75	38.5
HPLM + 10% dialyzed FBS, 0.569 µM	52.2	68.7	31.8
HPLM + 10% dialyzed FBS, 1.71 µM	55	67.2	29.9
HPLM + 10% dialyzed FBS, 5.12 µM	50.6	66.7	23.7
HPLM + 10% dialyzed FBS, 15.4 µM	33.1	59.9	18.6
HPLM + 10% dialyzed FBS, 46.1 µM	26.3	44.5	3.79
RPMI 5 mM glucose + 10% FBS, 0.000781 µM	93.1	74.4	106
RPMI 5 mM glucose + 10% FBS, 0.00234 µM	96.5	71.5	101
RPMI 5 mM glucose + 10% FBS, 0.00702 µM	83.3	64.1	70.3
RPMI 5 mM glucose + 10% FBS, 0.0211 µM	77.6	61.5	62.4
RPMI 5 mM glucose + 10% FBS, 0.0632 µM	66.6	52	59.3
RPMI 5 mM glucose + 10% FBS, 0.19 µM	59.2	54.4	42.4
RPMI 5 mM glucose + 10% FBS, 0.569 µM	56.8	51	38.3
RPMI 5 mM glucose + 10% FBS, 1.71 µM	50.3	46.8	29.1
RPMI 5 mM glucose + 10% FBS, 5.12 µM	49.9	41.4	25.1
RPMI 5 mM glucose + 10% FBS, 15.4 µM	38.7	37.2	4.15
RPMI 5 mM glucose + 10% FBS, 46.1 µM	34.4	31.3	3.72
RPMI 5 mM glucose + 10% dialyzed FBS, 0.000781 µM	83.4	82.5	78.2
RPMI 5 mM glucose + 10% dialyzed FBS, 0.00234 µM	74.5	78.9	78.8
RPMI 5 mM glucose + 10% dialyzed FBS, 0.00702 µM	67.2	67.1	70.9
RPMI 5 mM glucose + 10% dialyzed FBS, 0.0211 µM	58.5	59.1	54.8
RPMI 5 mM glucose + 10% dialyzed FBS, 0.0632 µM	59.6	61.7	52.6
RPMI 5 mM glucose + 10% dialyzed FBS, 0.19 µM	52.6	53.8	44
RPMI 5 mM glucose + 10% dialyzed FBS, 0.569 µM	51.7	45	39.7
RPMI 5 mM glucose + 10% dialyzed FBS, 1.71 µM	48.6	47.3	36.1
RPMI 5 mM glucose + 10% dialyzed FBS, 5.12 µM	43.2	41.5	28.6
RPMI 5 mM glucose + 10% dialyzed FBS, 15.4 µM	35.7	35.6	15.8
RPMI 5 mM glucose + 10% dialyzed FBS, 46.1 µM	31.3	32	4.72

Cc1c(O)cccc1C(=O)N[C@@H](CSc1ccccc1)[C@H](O)CN1C[C@H]2CCCC[C@H]2C[C@H]1C(=O)NC(C)(C)C
AUC of viability dose-response curve
Details	NOMO1 [1]	P12-Ichikawa [2]	SEM cells [3]
HPLM + 10% dialyzed FBS	465	447	426
RPMI 5 mM glucose + 10% FBS	459	459	453
RPMI 5 mM glucose + 10% dialyzed FBS	455	461	455

Cc1ccc(O)c(C(CCN(C(C)C)C(C)C)c2ccccc2)c1.Cl (stereo unspecified)
P12-Ichikawa [6], HPLM + 10% dialyzed FBS
Details	cell viability [%]
0.000781 µM	121
0.00234 µM	122
0.00702 µM	131
0.0211 µM	137
0.0632 µM	140
0.19 µM	128
0.569 µM	129
1.71 µM	134
5.12 µM	134
15.4 µM	136
46.1 µM	127

AUC of viability dose-response curve
Details	NOMO1 [1]	P12-Ichikawa [2]	SEM cells [3]
HPLM + 10% dialyzed FBS	410	465	461
RPMI 5 mM glucose + 10% FBS	430	470	477
RPMI 5 mM glucose + 10% dialyzed FBS	435	475	463

CCOC(=O)[C@H](CCc1ccccc1)N[C@H]1CCc2ccccc2N(CC(=O)O)C1=O
AUC of viability dose-response curve
Details	NOMO1 [1]	P12-Ichikawa [2]	SEM cells [3]
HPLM + 10% dialyzed FBS	429	463	458
RPMI 5 mM glucose + 10% FBS	450	458	454
RPMI 5 mM glucose + 10% dialyzed FBS	448	457	459

COc1cc(C(=O)N2CCC(N3CCN(C)CC3)CC2)ccc1Nc1ncc2c(n1)N(C)c1ccccc1C(=O)N2C
AUC of viability dose-response curve
Details	NOMO1 [1]	P12-Ichikawa [2]	SEM cells [3]
HPLM + 10% dialyzed FBS	419	428	376
RPMI 5 mM glucose + 10% FBS	435	435	374
RPMI 5 mM glucose + 10% dialyzed FBS	412	433	363

Cc1cc(C[S+](=O)([O-])c2ccccc2)cc(OCc2ccc(CN3CCC[C@@H]3CO)cc2)c1
AUC of viability dose-response curve
Details	NOMO1 [1]	P12-Ichikawa [2]	SEM cells [3]
HPLM + 10% dialyzed FBS	298	305	291
RPMI 5 mM glucose + 10% FBS	321	315	268
RPMI 5 mM glucose + 10% dialyzed FBS	323	321	285

COc1cc(C)c(Sc2cnc(NC(=O)c3ccc(CNC(C)C(C)(C)C)cc3)s2)cc1C(=O)N1CCN(C(C)=O)CC1 (stereo unspecified)
Details	cell viability [%]
NOMO1 [5], RPMI 5 mM glucose + 10% FBS, 0.000781 µM	116
NOMO1 [5], RPMI 5 mM glucose + 10% FBS, 0.00234 µM	131
NOMO1 [5], RPMI 5 mM glucose + 10% FBS, 0.00702 µM	124
NOMO1 [5], RPMI 5 mM glucose + 10% FBS, 0.0211 µM	128
NOMO1 [5], RPMI 5 mM glucose + 10% FBS, 0.0632 µM	127
NOMO1 [5], RPMI 5 mM glucose + 10% FBS, 0.19 µM	124
NOMO1 [5], RPMI 5 mM glucose + 10% FBS, 0.569 µM	132
NOMO1 [5], RPMI 5 mM glucose + 10% FBS, 1.71 µM	115
NOMO1 [5], RPMI 5 mM glucose + 10% FBS, 5.12 µM	114
NOMO1 [5], RPMI 5 mM glucose + 10% FBS, 15.4 µM	115
NOMO1 [5], RPMI 5 mM glucose + 10% FBS, 46.1 µM	17
P12-Ichikawa [6], HPLM + 10% dialyzed FBS, 0.000781 µM	125
P12-Ichikawa [6], HPLM + 10% dialyzed FBS, 0.00234 µM	129
P12-Ichikawa [6], HPLM + 10% dialyzed FBS, 0.00702 µM	120
P12-Ichikawa [6], HPLM + 10% dialyzed FBS, 0.0211 µM	120
P12-Ichikawa [6], HPLM + 10% dialyzed FBS, 0.0632 µM	122
P12-Ichikawa [6], HPLM + 10% dialyzed FBS, 0.19 µM	127
P12-Ichikawa [6], HPLM + 10% dialyzed FBS, 0.569 µM	115
P12-Ichikawa [6], HPLM + 10% dialyzed FBS, 1.71 µM	110
P12-Ichikawa [6], HPLM + 10% dialyzed FBS, 5.12 µM	109
P12-Ichikawa [6], HPLM + 10% dialyzed FBS, 15.4 µM	101
P12-Ichikawa [6], HPLM + 10% dialyzed FBS, 46.1 µM	7.33

AUC of viability dose-response curve
Details	NOMO1 [1]	P12-Ichikawa [2]	SEM cells [3]
HPLM + 10% dialyzed FBS	442	447	365
RPMI 5 mM glucose + 10% FBS	453	444	358
RPMI 5 mM glucose + 10% dialyzed FBS	437	439	350

Source: the supplement of paper PMC11451515
